Consider one compound from publication PMC3833957, “Macroscopic Kinetics of Pentameric Ligand Gated Ion Channels: Comparisons between Two Prokaryotic Channels and One Eukaryotic Channel” (PLoS ONE, 2013).

The target of the experiment is T1, ELIC (Dickeya chrysanthemi, UniProt P0C7B7).
T1 sequence (P0C7B7 1-321): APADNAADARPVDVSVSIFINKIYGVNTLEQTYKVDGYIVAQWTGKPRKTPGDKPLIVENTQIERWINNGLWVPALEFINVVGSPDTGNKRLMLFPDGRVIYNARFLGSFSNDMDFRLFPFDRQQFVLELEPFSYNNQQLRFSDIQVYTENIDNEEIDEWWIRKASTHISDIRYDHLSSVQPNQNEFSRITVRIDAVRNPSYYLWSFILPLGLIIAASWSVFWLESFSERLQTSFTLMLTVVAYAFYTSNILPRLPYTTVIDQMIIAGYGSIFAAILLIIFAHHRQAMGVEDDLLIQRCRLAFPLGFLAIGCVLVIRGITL
Description: two-electrode voltage clamp in Xenopus oocytes; outside-out patch clamp of HEK-293T cells. Format: cell-based.

For orientation: EC50 means the concentration at which the effect is half-maximal. Lower therefore signals an effect from little substance.

`NCCS` [CA, cysteamine] came in with a concentration giving a half-maximal response (EC50) of 10 ± 0.1 mM.
